Assay [1] concerns SMMC-7721-SC2 cells. In words: Adhesion of cells transfected with OPN expression constructs. The settings on record: 30-60 minutes. The class given is cell-based, human. On the procedure: To determine the affect of OPN fragments on adhesion, the following methods were used. SMMC-7721-SC2 cells (1×10^6) were trypsinized (E-PET, Biosource, CA) and transfected with the four OPN expression constructs shown in FIG. 3A and empty vector DNA (5 μg) (50-60% efficiency) using optimized conditions (Nucleofection, AMAXA, MD) and plated to 6-well plates. After a 24-hour recovery period, the cells were trypsinized and seeded by equal numbers (6×10^4) into fluorescent-read 96-well plates in serum-free media. Non-adherent cells were removed with a PBS wash after 2-60 minutes and fluorescence was quantified at EX485, EM530.

Assay [2] concerns SMMC-7721-SC2 cells. In words: Migration assay of cells transfected with OPN constructs. The class given is cell-based, human. The note with it: vector controls, 24, 36, 48 hours. How it is done:
(§1) Migration and invasion assays were performed as follows. Transfected SMMC-7721-SC2 cells (transfected with 5 μg plasmid DNA) were allowed to recover in 5% serum containing media and were re-counted prior to dilution in serum-free media. Cells were seeded (5×10^4) into the upper chambers of Matrigel coated 8 um pore membranes (HTSTM Fluoroblok tumor invasion system, BD Biosciences, MA) or uncoated […] pore membranes (HTSTM Fluoroblok insert system, BD Biosciences, MA). Media containing serum (5%) was added to the lower chambers as a chemotactic agent. Blocking antibodies to either the integrin αVβ3 receptor (clone LM609, Chemicon, CA) or a common determinant of the CD44 receptors (clone A020, Calbiochem, CA) were added to the upper chambers (4 μg/ml) at the time of cell seeding. Migrated cells were labeled with calcein AM (Molecular Probes, OR) at 37° C. for 1 hour, and fluorescence was measured at 24, 36, and 48 hours (EX 490 nm, EM 530 nm).

The test system of assay [3] is SMMC-7721-SC2 cells. In words: Matrigel invasion assay (OPN constructs, blocking antibodies, OPN-5kD peptide). The class given is cell-based, human. The note with it: 36 hours. How it is done: as §1
Cell invasion was measured as described in Example 4. Briefly, each of the OPN vectors shown in FIG. 3A (5 μg) were separately transfected into SMMC-7721 cells (1×10^6) using optimized conditions (Nucleofection, AMAXA). […] After 36 hours, the invaded cells were labeled with calcein at 37° C. for 1 hour and fluorescence was measured (EX485, EM530).
To determine the effect of blocking antibodies to the integrin aV133 and CD44 receptors on the affect of invasion of HCC cells expression OPN full-length or OPN-5 kD, integrin αVβ3 (Chemicon, CA) or CD44 (Calbiochem, CA) blocking antibodies were added (4 μg/ml) to cells transiently expressing OPN full-length and OPN-5kD. Invading cells were measured at 36 hours following calcein incorporation as described above.
To determine the effect of varying concentrations of the OPN-5kD peptide on invasion of HCC cells, SMMC-7721 cells were exposed to increasing concentrations of the OPN-5kD peptide (0.4 μM, 1 μM and 2 μM) and invading cells were measured after 36 hours following calcein incorporation as described above. […]

The target in assay [4] is T1, Human MMP-9 (Homo sapiens, UniProt P14780).
T1 construct: purchased Calbiochem, CA
In words: OPN cleavage assay with MMP-9 and MMP inhibitors. The assay is classed as biochemical. The settings on record: Western blot after 1-hour digestion at 37° C.; EDTA 10 mM, MMP-9 inhibitor I 2 μM, TIMP-1 0.1 μM. For orientation: Immunoblotting shows a protein as a band on a membrane.
Description: OPN cleavage assays were performed as follows. Human MMP-9 (Calbiochem, CA) was incubated at 37° C. for 3 hours with recombinant human OPN (R&D systems, MN) at an optimized ratio (5:1 substrate:enzyme) in a buffered solution (200 mM NaCl, 5 mM CaCl, 50 mM Tris-C1, pH 7.5). Digested OPN was analyzed by 16% tris-glycine SDS-PAGE followed by colloidal coomassie blue staining (SimplyBlue™, Invitrogen, CA). Separate cleavage reactions (2 μg OPN) were transferred to PDVF membranes for amino-end terminal microsequencing.
For western blot analysis, MMP-9-digested OPN samples and whole cell lysates (50 μg) were transferred to 0.22 um PVDF membranes and probed with a polyclonal antibody generated to a 14-residue peptide just downstream of the residue 169 thrombin cleavage site ([sequence]; amino acids 169-183 of SEQ ID NO: 2) (Abcam, MA). HEK-293 cell lysates were probed with an anti-FLAG antibody (Sigma, Mo.). Immuno-reactive proteins were detected by chemilluminescence (ECL, GE Healthcare Life Sciences, NJ).

The test system of assay [5] is SMMC-7721 SC2 cells. In words: Matrigel invasion assay with short overlapping peptides of OPN-5kD. The assay is classed as cell-based, human. The settings on record: 36 hours; for effect on OPN-5kD induced invasion, separate addition: in conjunction with OPN-5kD, 1:1 molar, 2 μM each; for cellular invasion relative to media alone treated cells: peptide alone, 2 μM, p<0.05. The source says: A 44 residue peptide corresponding to the OPN-5kD fragment (SEQ ID NO: 4), was synthesized and purified >97% by HPLC (EZBiolabs, IN). A series of short peptides spanning the region of residues 167-210 of OPN (SEQ ID NO: 2) were generated as follows. Eight small overlapping peptides spanning the OPN-5kD peptide were similarly synthesized to >75% purity (p1=[…], amino acids 167-176 of SEQ ID NO: 2; p2=[…], amino acids 172-181 of SEQ ID NO: 2; p3=[…], amino acids 177-186 of SEQ ID NO: 2; p4=[…], amino acids 182-191 of SEQ ID NO: 2; p5=[…], amino acids 187-196 of SEQ ID NO: 2; p6=[…], amino acids 192-201 of SEQ ID NO: 2; p7=[…], amino acids 197-206 of SEQ ID NO: 2; and p8=[…] amino acids 202-210 of SEQ ID NO: 2) (EZBiolabs, IN). The lyophilized peptides were resuspended in PBS and applied with cells to the upper wells of Matrigel invasion chambers at equal molar concentrations (2 μM). Invading cells were measured after 36 hours following calcein incorporation as described in the examples above.

In assay [6] the test system is SMMC-7721-SC2 cells. In words: Cellular adhesion with exogenous intact or MMP-9 cleaved OPN. The assay is classed as cell-based, human. The settings on record: GRGDS peptide 400 μM; OPN 250 nM. How it is done: Cellular adhesion was measured using the following methods. SMMC-7721-SC2 cells were seeded into the wells of a 96-well fluorescent-read plate in serum-free media (6×10^4 cells/well) with human OPN (0-250 nM) with or without prior digestion by MMP-9. Media and MMP-9 alone treated cells were included as controls. A GRGDS blocking peptide (400 μM) was added to separate media control, intact OPN, and MMP-9 cleaved OPN (250 nM) conditions. Non-adherent cells were removed with a PBS wash (100 μl) after one hour and adherent cells were quantified by CyQuant GR dye incorporation (Molecular Probes, OR) and detection at EX485, EM530.

Experimental findings from US8247183B2, “Compositions and methods for diagnosis and treatment of tumors” (The United States of America, as represented by the …, priority 2006, dated 2012) are described below.

Bounds are passed on as bounds.

T1 sequence (P14780 94-707): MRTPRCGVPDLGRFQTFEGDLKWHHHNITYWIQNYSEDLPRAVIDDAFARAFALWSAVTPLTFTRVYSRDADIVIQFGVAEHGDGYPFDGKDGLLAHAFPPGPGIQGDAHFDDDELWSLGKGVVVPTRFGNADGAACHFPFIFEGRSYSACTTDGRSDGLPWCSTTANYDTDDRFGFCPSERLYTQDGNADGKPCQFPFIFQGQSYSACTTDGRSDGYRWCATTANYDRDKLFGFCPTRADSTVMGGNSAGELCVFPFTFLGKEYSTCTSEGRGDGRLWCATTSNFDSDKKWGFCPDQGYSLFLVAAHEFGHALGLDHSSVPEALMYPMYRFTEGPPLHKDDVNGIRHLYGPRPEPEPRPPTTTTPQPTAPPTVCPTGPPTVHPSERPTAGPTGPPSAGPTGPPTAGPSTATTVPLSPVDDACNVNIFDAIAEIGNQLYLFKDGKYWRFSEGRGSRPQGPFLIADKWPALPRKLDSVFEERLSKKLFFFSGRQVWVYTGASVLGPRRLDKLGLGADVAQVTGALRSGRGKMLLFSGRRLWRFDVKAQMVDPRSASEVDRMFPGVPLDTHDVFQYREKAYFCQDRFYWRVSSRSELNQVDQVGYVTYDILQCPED

Turning to “OPN-24 kD: OPN fragment residues 211-314; expressed from FLAG-tagged construct”, the “adhesion after transient over-expression relative to controls, later time points” value in assay [1] is reported as “decreased adhesion”. Also, the “SMMC-7721-SC2 migration relative to controls” value in assay [2] is on record as “decreased migration”. For the same compound, in assay [3], the “cellular invasion compared to vector transfected cells” value is recorded as “No significant difference”.

In the case of `O=C(O)CN(CCN(CC(=O)O)CC(=O)O)CC(=O)O` [EDTA], the “inhibition of MMP-9 cleavage of OPN (OPN-5kD fragment detection)” value in assay [4] is given as “partially inhibited”.

Consider “HMESEELNGA (listed as Homo sapiens) [p6]”, for which, in assay [5], the “effect on OPN-5kD induced invasion, separate addition” value (shortened to “effect on OPN-5kD induced invasion”) is reported as “partial reduction in invasion” and the “cellular invasion relative to media alone treated cells” value is “suppressive effect”.

On to “KKFRRPDIQY (listed as Homo sapiens) [p2]”, for which, in assay [5], the “effect on OPN-5kD induced invasion” value is listed as “insignificant effect”.

Take “PDIQYPDATD (listed as Homo sapiens) [p3]”: in assay [5], the “effect on OPN-5kD induced invasion” value is “partial reduction in invasion” and the “cellular invasion relative to media alone treated cells” value is “suppressive effect”.

As to “full-length OPN: wild-type osteopontin protein (OPN-a) expressed from FLAG-tagged construct”, the “adhesion after transient over-expression relative to controls, later time points” value in assay [1] is given as “increased adhesion”. In addition, the “SMMC-7721-SC2 migration relative to controls” value in assay [2] was “induced SMMC-7721-SC2 migration”. Moreover, in assay [3], the “cellular invasion compared to vector transfected cells” value was “slightly increased invasion”.

On to GRGDS [GRGDS peptide], for which, in assay [6], the “blocking of intact and cleaved OPN-mediated adhesion” value is “blocked both intact and cleaved OPN-mediated adhesion”.

For the compound “OPN-5kD: MMP-9 cleavage fragment of OPN, residues 167-210; expressed from FLAG-tagged construct”, the “adhesion after transient over-expression relative to controls, later time points” value in assay [1] is listed as “decreased adhesion”. The “SMMC-7721-SC2 migration relative to controls” value in assay [2] is on record as “decreased migration”. The “increase in cellular invasion” value in assay [3] (transfected cells, p=0.001) was > 2 fold.

For the compound “ELNGAYKAIP (listed as Homo sapiens) [p7]”, in assay [5], the “effect on OPN-5kD induced invasion” value is “partial reduction in invasion” and the “cellular invasion relative to media alone treated cells” value was “suppressive effect”.
